In patent US11639350B2, “Heteroaryldihydropyrimidine derivatives and methods of treating hepatitis B infections” (Janssen Pharmaceutica NV, priority 2018, dated 2023) one finds EC50 and CC50 data, which are given here for 21 compounds.

Molecules are shown by their SMILES. pEC50: −log10 of the molar value. Like-named read-outs stand apart in the source and are kept apart here. A value given as a limit tells only on which side of the number the result lay.

One data set has as its system HBV. The data set is described as follows: HBV inhibitory activity: HBV DNA in the culture medium of HepG2.2.15 cells by q-PCR. The class given is cell-based. As to conditions: HepG2.2.15 cells, 6 days of compound treatment, HBV DNA in culture medium by q-PCR, highest concentration 10 μM, read-out: EC50. In short, it runs like this:
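HepG2.2.15 cells in 2% FBS medium, 40,000 per well, treated 6 days with compound (medium refreshed once), eight 3-fold dilutions from 10 μM top. HBV DNA extracted from culture medium and quantified by q-PCR; EC50 averaged over repeats. Cytotoxicity run in parallel at 5,000 cells per well, top 100 μM, giving CC50.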

Data set [1] is described as follows: Cytotoxicity determination in HepG2.2.15 cells (CCK-8). The class given is cell-based. As to conditions: human, 6 days of compound treatment, CCK-8, highest concentration 100 μM. Summed up:
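HepG2.2.15 cells seeded at 5,000 cells/well in 2% FBS medium, incubated overnight at 37° C., then treated 6 days with compounds (8 points, 3-fold dilutions, top 100 μM), medium refreshed once midway. CCK-8 added for 2.5 h; A450 read against 630 nm reference; CC50 calculated, averaged over repeats.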

Setting [2] is: Hepatitis B virus, HepG2.2.15, 144 h.

A word on the pEC50: it is the EC50 on a negative log10 scale, so that one unit is a factor of ten. For orientation: CC50 means the concentration at which the toxic effect on the cells reaches its halfway point. Read a high CC50 as better tolerance by the cells. For the compound `COC(=O)C1=C([C@H]2CC[C@H](N(CC#N)S(C)(=O)=O)CC2)NC(c2nccs2)=NC1c1ccc(F)cc1Cl` (single isomer, unassigned) [Compound 448A, (trans)-Methyl 4-(2-chloro-4-fluorophenyl)-6-(4-(N-(cyanomethyl)methylsulfonamido)cyclohexyl)-2-(thiazol-2-yl)-1,4-dihydropyrimidine-5-carboxylate], in the data set on HBV (setting [2]), the pEC50 was 8.10. In data set [1], this compound came in with a CC50 at 6 days of more than 100000 nM.

As to `COC(=O)C1=C(C23CC(NS(C)(=O)=O)(C2)C3)NC(c2nccs2)=NC1c1ccc(F)cc1Cl` (single isomer, unassigned) [Compound 372Y, Methyl 4-(2-chloro-4-fluorophenyl)-6-(3-(methylsulfonamido)bicyclo[1.1.1]pentan-1-yl)-2-(thiazol-2-yl)-1,4-dihydropyrimidine-5-carboxylate], in the data set on HBV (setting [2]), the pEC50 was 7.82. For the same compound, the half-maximal cytotoxic concentration (CC50) at 6 days in data set [1] came out at 31800 nM.

In the case of `COC(=O)C1=C(C2CCN(S(=O)(=O)[C@H]3C[C@@H](C(=O)O)C3)CC2)NC(c2nccs2)=NC1c1ccc(F)c(F)c1Cl` (relative stereo) [Compound 232D, (cis)-3-((4-(−6-(2-Chloro-3,4-difluorophenyl)-5-(methoxycarbonyl)-2-(thiazol-2-yl)-3,6-dihydropyrimidin-4-yl)piperidin-1-yl)sulfonyl)cyclobutanecarboxylic Acid], the negative-log EC50 (pEC50) in the data set on HBV (setting [2]) is 7.52. For the same compound, the cytotoxic concentration (CC50) at 6 days in data set [1] was 39600 nM.

Take `COC(=O)C1=C(C2CCN(S(=O)(=O)C(F)F)CC2)NC(c2nccs2)=NC1c1ccc(F)c(F)c1Cl` (single isomer, unassigned) [Compound 166A, Methyl 4-(2-chloro-3,4-difluorophenyl)-6-(1-((difluoromethyl)sulfonyl)piperidin-4-yl)-2-(thiazol-2-yl)-1,4-dihydropyrimidine-5-carboxylate]: the negative logarithm of the EC50 (pEC50) with HBV (setting [2]) is 7.21. The same compound registered a CC50 at 6 days in data set [1] of more than 50000 nM.

Regarding `CCOC(=O)C1=C([C@H]2CC[C@H](C(=O)O)CC2)NC(c2nccs2)=NC1c1cccc(F)c1Cl` (single isomer, unassigned) [Compound 23, trans-4-(6-(2-Chloro-3-fluorophenyl)-5-(ethoxycarbonyl)-2-(thiazol-2-yl)-3,6-dihydropyrimidin-4-yl)cyclohexanecarboxylic Acid], the pEC50 with HBV (setting [2]) is 6.25. The compound also yielded a CC50 at 6 days in data set [1] of 47500 nM.

On to `COC(=O)C1=C(C2CCN(S(=O)(=O)[C@H]3CC[C@@H](CC(=O)O)CC3)CC2)NC(c2nccs2)=NC1c1ccc(F)cc1Cl` (relative stereo) [Compound 476B, (cis)-2-(4-((4-(6-(2-Chloro-4-fluorophenyl)-5-(methoxycarbonyl)-2-(thiazol-2-yl)-3,6-dihydropyrimidin-4-yl)piperidin-1-yl)sulfonyl)cyclohexyl)acetic Acid], for which the pEC50 in the data set with HBV (setting [2]) was 7.36. Besides, the CC50 at 6 days in data set [1] is 30200 nM.

With `CCOC(=O)C1=C(C2CCN(S(=O)(=O)[C@H]3C[C@H](C(=O)O)C3)CC2)NC(c2nccs2)=NC1c1cccc(F)c1Cl` (stereo partly drawn) [Compound 319B, (trans)-3-((4-(6-(2-chloro-3-fluorophenyl)-5-(ethoxycarbonyl)-2-(thiazol-2-yl)-3,6-dihydropyrimidin-4-yl)piperidin-1-yl)sulfonyl)-cyclobutanecarboxylic Acid], the pEC50 in the data set on HBV (setting [2]) was 6.99. Moreover, the CC50 at 6 days in data set [1] worked out at 31300 nM.

For `COC(=O)C1=C([C@H]2CC[C@H](S(=O)(=O)NCCO)CC2)NC(c2nccs2)=NC1c1ccc(F)c(F)c1Cl` (single isomer, unassigned) [Compound 291C, (trans)-Methyl 4-(2-chloro-3,4-difluorophenyl)-6-(4-(N-(2-hydroxyethyl)sulfamoyl)cyclohexyl)-2-(thiazol-2-yl)-1,4-dihydropyrimidine-5-carboxylate], the pEC50 in the data set on HBV (setting [2]) was 7.80. Further, in data set [1], the midpoint of cytotoxicity, the CC50 at 6 days, lay at 12000 nM.

In the case of `COC(=O)C1=C(C2CCC(C(=O)O)C2)NC(c2nccs2)=NC1c1ccc(F)cc1Cl` (single isomer, unassigned) [Compound 72C, 3-(6-(2-Chloro-4-fluorophenyl)-5-(methoxycarbonyl)-2-(thiazol-2-yl)-3,6-dihydropyrimidin-4-yl)cyclopentanecarboxylic Acid], the negative-log EC50 (pEC50) in the data set on HBV was 6.32. In data set [1], half-maximal cytotoxicity (CC50 at 6 days) was put at 22100 nM.

As to `COC(=O)C1=C(C2CN(S(=O)(=O)C3CCC3)C2)NC(c2nccs2)=NC1c1ccc(F)cc1Cl` (stereo not drawn) [Compound 80, Methyl 4-(2-chloro-4-fluorophenyl)-6-(1-(cyclobutylsulfonyl)-azetidin-3-yl)-2-(thiazol-2-yl)-1,4-dihydropyrimidine-5-carboxylate], the pEC50 in the data set with HBV (setting [2]) is 6.97. In data set [1], this compound showed a 50% cytotoxic concentration (CC50) at 6 days of 6300 nM.

Take `COC(=O)C1=C([C@H]2CC[C@H](C(=O)O)CC2)NC(c2nccs2)=NC1c1ccc(F)cc1Br` (stereo partly drawn) [Compound 225, (trans)-4-(6-(2-Bromo-4-fluorophenyl)-5-(methoxycarbonyl)-2-(thiazol-2-yl)-3,6-dihydropyrimidin-4-yl)cyclohexanecarboxylic Acid]: the pEC50 with HBV (setting [2]) is 7.06. The CC50 at 6 days in data set [1] is not below 100000 nM.

Consider `COC(=O)C1=C(C2CCC(C(=O)O)C2)NC(c2nccs2)=NC1c1cccc(F)c1Cl` (stereo not drawn) [Compound 77, 3-(6-(2-Chloro-3-fluorophenyl)-5-(methoxycarbonyl)-2-(thiazol-2-yl)-3,6-dihydropyrimidin-4-yl)cyclopentanecarboxylic Acid], for which, in the data set on HBV (setting [2]), the pEC50 was 7.15. In data set [1], this compound showed a 50% cytotoxic concentration (CC50) at 6 days of 34200 nM.

As for `COCCNS(=O)(=O)[C@H]1CC[C@H](C2=C(C(=O)OC)C(c3ccc(F)c(F)c3Cl)N=C(c3nccs3)N2)CC1` (single isomer, unassigned) [Compound 359D, (trans)-methyl 4-(2-chloro-3,4-difluorophenyl)-6-(4-(N-(2-methoxyethyl)sulfamoyl)cyclohexyl)-2-(thiazol-2-yl)-1,4-dihydropyrimidine-5-carboxylate], the pEC50 with HBV (setting [2]) was 8.30. In data set [1], the CC50 at 6 days turned out to be 12000 nM.

Take `COC(=O)C1=C(C2CCN(S(=O)(=O)c3cnn(CCCCC(=O)O)c3)CC2)NC(c2nccs2)=NC1c1ccc(F)cc1Cl` (stereo not drawn) [Compound 471, 5-(4-((4-(6-(2-Chloro-4-fluorophenyl)-5-(methoxycarbonyl)-2-(thiazol-2-yl)-3,6-dihydropyrimidin-4-yl)piperidin-1-yl)sulfonyl)-1H-pyrazol-1-yl)pentanoic Acid]: the pEC50 in the data set with HBV (setting [2]) is 7.28. The same compound came in with a CC50 at 6 days in data set [1] of 32300 nM.

For the compound `COCCS(=O)(=O)N1CCC(C2=C(C(=O)OC)C(c3ccc(F)cc3Cl)N=C(c3nccs3)N2)C1` (single isomer, unassigned) [Compound 365, Methyl 4-(2-chloro-4-fluorophenyl)-6-((R*)-1-((2-methoxyethyl)sulfonyl)pyrrolidin-3-yl)-2-(thiazol-2-yl)-1,4-dihydropyrimidine-5-carboxylate], in the data set with HBV (setting [2]), the pEC50 was 7.21. The same compound gave a CC50 at 6 days in data set [1] of 21800 nM.

As for `CCOC(=O)C1=C([C@H]2C[C@@H](NS(C)(=O)=O)C2(C)C)NC(c2nccs2)=NC1c1ccc(F)cc1Cl` (mixture of isomers) [Compound 437, (cis)-Ethyl 4-(2-chloro-4-fluorophenyl)-6-(2,2-dimethyl-3-(methylsulfonamido)cyclobutyl)-2-(thiazol-2-yl)-1,4-dihydropyrimidine-5-carboxylate], the negative-log EC50 (pEC50) in the data set on HBV (setting [2]) was 6.39. In addition, in data set [1], the midpoint of cytotoxicity, the CC50 at 6 days, lay at 4000 nM.

For `COC(=O)C1=C(C2CC(C(=O)O)C2)NC(c2nccs2)=NC1c1ccc(F)cc1Cl` (stereo not drawn) [Compound 86, 6-(3-Carboxy-cyclobutyl)-4-(2-chloro-4-fluoro-phenyl)-2-thiazol-2-yl-1,4-dihydro-pyrimidine-5-carboxylic acid methyl ester], in the data set with HBV (setting [2]), the pEC50 is 6.96. The compound further showed a half-maximal cytotoxic concentration (CC50) at 6 days in data set [1] of 21600 nM.

For `COC(=O)C1=C(C2CCN(S(=O)(=O)C[C@H]3CC[C@H](C(=O)O)CC3)CC2)NC(c2nccs2)=NC1c1ccc(F)c(F)c1Cl` (stereo partly drawn) [Compound 425, trans-4-(((4-(6-(2-chloro-3,4-difluorophenyl)-5-(methoxycarbonyl)-2-(thiazol-2-yl)-3,6-dihydropyrimidin-4-yl)piperidinyl)sulfonyl)methyl)cyclohexane-1-carboxylic Acid], the pEC50 in the data set on HBV (setting [2]) is 8.22. The compound also yielded a CC50 at 6 days in data set [1] of 13300 nM.

On to `COC(=O)C1=C([C@H]2CC[C@H](N(CCCO)S(C)(=O)=O)CC2)NC(c2nccs2)=NC1c1ccc(F)cc1Cl` (single isomer, unassigned) [Compound 431B, (trans)-Methyl 4-(2-chloro-4-fluorophenyl)-6-(4-(N-(3-hydroxypropyl)methylsulfonamido)cyclohexyl)-2-(thiazol-2-yl)-1,4-dihydropyrimidine-5-carboxylate], for which the pEC50 with HBV (setting [2]) is 7.28. Further, the half-maximal cytotoxic concentration (CC50) at 6 days in data set [1] was 28100 nM.

Turning to `COC(=O)C1=C(C2CNC(=O)C2)NC(c2nccs2)=NC1c1cccc(F)c1Cl` (stereo not drawn) [Compound 284, methyl 4-(2-chloro-3-fluorophenyl)-6-(−5-oxopyrrolidin-3-yl)-2-(thiazol-2-yl)-1,4-dihydropyrimidine-5-carboxylate], the pEC50 with HBV (setting [2]) was 6.65. The compound also yielded a cytotoxic concentration (CC50) at 6 days in data set [1] of 21100 nM.

For the compound `CCOC(=O)C1=C([C@@H]2CCN(S(C)(=O)=O)[C@@H](CF)C2)NC(c2nccs2)=NC1c1ccc(F)cc1Cl` (relative stereo) [Compound 404N, ethyl 4-(2-chloro-4-fluorophenyl)-6-((trans)-2-(fluoromethyl)-1-(methylsulfonyl)piperidin-4-yl)-2-(thiazol-2-yl)-1,4-dihydropyrimidine-5-carboxylate], the pEC50 in the data set with HBV (setting [2]) is 6.81. Also, the CC50 at 6 days in data set [1] is 17700 nM.
